The assay deals with T1, Recombinant human mPGES-1 (Homo sapiens, UniProt O14684).
T1 sequence (O14684 1-152): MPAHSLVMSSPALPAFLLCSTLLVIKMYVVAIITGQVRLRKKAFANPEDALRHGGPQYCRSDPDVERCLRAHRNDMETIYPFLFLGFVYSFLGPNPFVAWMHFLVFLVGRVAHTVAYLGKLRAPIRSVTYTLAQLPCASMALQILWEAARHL
In words: In-vitro mPGES-1 enzyme inhibition assay (PGE2 formation from PGH2, HTRF detection). The assay is classed as biochemical. The following applies: for inhibition at 1 µM: 1 μM test compound, read-out: Percentage inhibition at 1 μM; for inhibition at 1 µM / inhibition at 10 µM: recombinant human mPGES-1 microsomal fraction; for inhibition at 10 µM: 10 μM test compound, read-out: Percentage inhibition at 10 μM; for IC50: class symbols, selected examples. The source says: In-Vitro Protocol for Screening of mPGES-1 Inhibitors: mPGES-1 (microsomal prostaglandin E synthase-1) is a microsomal enzyme that converts endoperoxide substrate PGH2 (prostaglandin H2) to product PGE2 (prostaglandin E2) by isomerization in the presence of reduced glutathione (GSH). mPGES-1 inhibitors were screened by assessing their ability to inhibit formation of PGE2 from PGH2 in presence of mPGES-1 using anti-PGE2 antibody based detection method. […] Assay was set up using crude microsomal fractions at protein concentration of 40-60 μg/mL. […] Final concentration of DMSO in reaction was 0.5% (v/v). Negative controls comprised of all assay reagents except the enzyme. Positive controls comprised of enzyme reaction in the absence of any inhibitor. […] Reaction was stopped by addition of Stannous chloride (11 mg/ml) and PGE2 levels were measured ([…] et al. […] Inhibition of mPGES-1 enzyme activity was measured using percent of reaction occurring in the positive control. Concentration response curves were plotted using percent inhibition of maximum enzyme reaction. IC50 value was calculated from concentration response curve by nonlinear regression analysis using GraphPad PRISM software.

A value given as a limit tells only on which side of the number the result lay.

For orientation: inhibition means the relative decrease from the control value, in per cent. Usually IC50 stands for the point on the concentration scale where inhibition reaches its midpoint. Take `CC(C)(C)CC(C)(C)NC(=O)c1cc2nc(Nc3c(Cl)cncc3Cl)[nH]c2c2c1OC(C)(C)C2` [Example-25, 2-[(3,5-Dichloropyridin-4-yl)amino]-7,7-dimethyl-N-(2,4,4-trimethylpentan-2-yl)-7,8-dihydro-1H-furo[3,2-e]benzimidazole-5-carboxamide]: the inhibition at 1 µM was 92%, the inhibition at 10 µM was 98.2% and the IC50 is below 50 nM.
For the compound `CC1(C)Cc2c(c(C(=O)NCc3ccc(F)cc3)cc3nc(Nc4c(Cl)cncc4Cl)[nH]c23)O1` [Example-26, 2-[(3,5-Dichloropyridin-4-yl)amino]-N-(4-fluorobenzyl)-7,7-dimethyl-7,8-dihydro-1H-furo[3,2-e]benzimidazole-5-carboxamide], the inhibition at 1 µM was 90.2%, the inhibition at 10 µM amounted to 97.8% and the IC50 was below 50 nM.
With `CC1(C)Cc2c(c(C(=O)NCC3CCCCC3)cc3nc(Nc4c(Cl)cncc4Cl)[nH]c23)O1` [Example-27, N-(Cyclohexylmethyl)-2-[(3,5-dichloropyridin-4-yl)amino]-7,7-dimethyl-7,8-dihydro-1H-furo[3,2-e]benzimidazole-5-carboxamide], the inhibition at 1 µM was 93.7% and the inhibition at 10 µM was 93%.
`CC1(C)Cc2c(c(C(=O)NC3CCCCC3)cc3nc(Nc4c(Cl)cncc4Cl)sc23)O1` [Example-28, N-Cyclohexyl-2-[(3,5-dichloropyridin-4-yl)amino]-7,7-dimethyl-7,8-dihydrofuro[2,3-g][1,3]benzothiazole-5-carboxamide]: the inhibition at 1 µM turned out to be 87.3%, the inhibition at 10 µM came out at 98.9% and the half-inhibitory concentration (IC50) was above 100 nM.
As for `CC1(C)Cc2c(c(C(=O)Nc3ccccc3F)cc3nc(Nc4c(Cl)cccc4Cl)[nH]c23)O1` [Example-30, 2-[(2,6-Dichlorophenyl)amino]-N-(2-fluorophenyl)-7,7-dimethyl-7,8-dihydro-1H-furo[3,2-e]benzimidazole-5-carboxamide], the inhibition at 1 µM stood at 93.8%, the inhibition at 10 µM came out at 92.5% and the half-maximal inhibitory concentration (IC50) was below 50 nM.
On to `Cc1cc2c(o1)c(C(=O)Nc1ccc(C(F)(F)F)cc1)cc1nc(Nc3c(Cl)cncc3Cl)[nH]c12` [Example-32, 2-[(3,5-Dichloropyridin-4-yl)amino]-7-methyl-N-[4-(trifluoromethyl)phenyl]-1H-furo[3,2-e]benzimidazole-5-carboxamide], for which the inhibition at 1 µM worked out at 99% and the inhibition at 10 µM is 100%.
In the case of `Cc1cc2c(o1)c(C(=O)NC(C)(C)CC(C)(C)C)cc1nc(Nc3c(Cl)cncc3Cl)[nH]c12` [Example-34, 2-[(3,5-Dichloropyridin-4-yl)amino]-7-methyl-N-(2,4,4-trimethylpentan-2-yl)-1H-furo[3,2-e]benzimidazole-5-carboxamide], the inhibition at 1 µM was 95.5%, the inhibition at 10 µM stood at 98.7% and the IC50 was below 50 nM.
With `Cc1cc2c(o1)c(C(=O)NCc1ccc(F)cc1)cc1nc(Nc3c(Cl)cccc3Cl)[nH]c12` [Example-35, 2-[(2,6-Dichlorophenyl)amino]-N-(4-fluorobenzyl)-7-methyl-1H-furo[3,2-e]benzimidazole-5-carboxamide], the inhibition at 1 µM amounted to 89.3% and the inhibition at 10 µM is 99.1%.
With `Cc1cc2c(o1)c(C(=O)Nc1ccc(F)cc1)cc1nc(Nc3c(Cl)cncc3Cl)[nH]c12` [Example-36, 2-[(3,5-Dichloropyridin-4-yl)amino]-N-(4-fluorophenyl)-7-methyl-1H-furo[3,2-e]benzimidazole-5-carboxamide], the inhibition at 1 µM came to 92.4%, the inhibition at 10 µM turned out to be 99.3% and the IC50 was above 100 nM.
With `Cc1nnc(NC(=O)c2cc3nc(Nc4c(Cl)cccc4Cl)[nH]c3c3c2OC(C)(C)C3)s1` [Example-38, 2-[(2,6-Dichlorophenyl)amino]-7,7-dimethyl-N-(5-methyl-1,3,4-thiadiazol-2-yl)-7,8-dihydro-1H-furo[3,2-e]benzimidazole-5-carboxamide], the inhibition at 1 µM came to 74.5% and the inhibition at 10 µM was found to be 81.5%.
With `CC1(C)Cc2c(c(C(=O)NCc3ccc(F)cc3)cc3nc(Nc4c(F)cccc4Cl)[nH]c23)O1` [Example-39, 2-[(2-Chloro-6-fluorophenyl)amino]-N-(4-fluorobenzyl)-7,7-dimethyl-7,8-dihydro-1H-furo[3,2-e]benzimidazole-5-carboxamide], the inhibition at 1 µM worked out at 92.5%, the inhibition at 10 µM stood at 70.7% and the IC50 was below 50 nM.
Take `Cc1cnc(NC(=O)c2cc3nc(Nc4c(Cl)cccc4Cl)[nH]c3c3c2OC(C)(C)C3)s1` [Example-40, 2-[(2,6-Dichlorophenyl)amino]-7,7-dimethyl-N-(5-methyl-1,3-thiazol-2-yl)-7,8-dihydro-1H-furo[3,2-e]benzimidazole-5-carboxamide]: the inhibition at 1 µM was found to be 88.7%, the inhibition at 10 µM is 94.6% and the IC50 was below 50 nM.
For `CCC(C)(C)NC(=O)c1cc2nc(Nc3c(Cl)cccc3Cl)[nH]c2c2c1OC(C)(C)C2` [Example-41, 2-[(2,6-Dichlorophenyl)amino]-7,7-dimethyl-N-(2-methylbutan-2-yl)-7,8-dihydro-1H-furo[3,2-e]benzimidazole-5-carboxamide], the inhibition at 1 µM was found to be 99.2%, the inhibition at 10 µM was 95.7% and the IC50 was below 50 nM.
In the case of `CC1(C)Cc2c(c(C(=O)NCC3CCCCC3)cc3nc(Nc4c(F)cccc4Cl)[nH]c23)O1` [Example-42, 2-[(2-Chloro-6-fluorophenyl)amino]-N-(cyclohexylmethyl)-7,7-dimethyl-7,8-dihydro-1H-furo[3,2-e]benzimidazole-5-carboxamide], the inhibition at 1 µM was found to be 83.2%, the inhibition at 10 µM was 89.9% and the IC50 is below 50 nM.
Consider `CC(O)CNC(=O)c1cc2nc(Nc3c(Cl)cccc3Cl)[nH]c2c2c1OC(C)(C)C2` (stereo not drawn) [Example-43, 2-[(2,6-Dichlorophenyl)amino]-N-(2-hydroxypropyl)-7,7-dimethyl-7,8-dihydro-1H-furo[3,2-e]benzimidazole-5-carboxamide], for which the inhibition at 1 µM stood at 43.8%, the inhibition at 10 µM turned out to be 72.3% and the IC50 was below 50 nM.
For the compound `CC(C)CCNC(=O)c1cc2nc(Nc3c(Cl)cccc3Cl)[nH]c2c2c1OC(C)(C)C2` [Example-46, 2-[(2,6-Dichlorophenyl)amino]-7,7-dimethyl-N-(3-methylbutyl)-7,8-dihydro-1H-furo[3,2-e]benzimidazole-5-carboxamide], the inhibition at 1 µM was 100%, the inhibition at 10 µM is 100% and the concentration for half-maximal inhibition (IC50) was below 50 nM.
On to `Cc1cc2c(o1)c(C(=O)NCc1ccc(F)cc1)cc1nc(Nc3c(F)cccc3Cl)[nH]c12` [Example-48, 2-[(2-Chloro-6-fluorophenyl)amino]-N-(4-fluorobenzyl)-7-methyl-1H-furo[3,2-e]benzimidazole-5-carboxamide], for which the inhibition at 1 µM is 70.8% and the inhibition at 10 µM amounted to 96.7%.
Take `Cc1cc2c(o1)c(C(=O)NCC1CCCCC1)cc1nc(Nc3c(F)cccc3Cl)[nH]c12` [Example-49, 2-[(2-Chloro-6-fluorophenyl)amino]-N-(cyclohexylmethyl)-7-methyl-1H-furo[3,2-e]benzimidazole-5-carboxamide]: the inhibition at 1 µM was 91.6% and the inhibition at 10 µM amounted to 96.1%.

The values are drawn from US8519149B2, “Tricyclic compounds as mPGES-1 inhibitors” (Glenmark Pharmaceuticals S.A., priority 2010, dated 2013).
